Measurements reported in article PMC4464473, “Synthesis of multivalent carbohydrate mimetics with aminopolyol end groups and their evaluation as L-selectin inhibitors” (Beilstein Journal of Organic Chemistry, 2015).

Target: T1, L-selectin (Homo sapiens, UniProt P14151)
T1 construct: gene SELL
T1 sequence (P14151 39-372): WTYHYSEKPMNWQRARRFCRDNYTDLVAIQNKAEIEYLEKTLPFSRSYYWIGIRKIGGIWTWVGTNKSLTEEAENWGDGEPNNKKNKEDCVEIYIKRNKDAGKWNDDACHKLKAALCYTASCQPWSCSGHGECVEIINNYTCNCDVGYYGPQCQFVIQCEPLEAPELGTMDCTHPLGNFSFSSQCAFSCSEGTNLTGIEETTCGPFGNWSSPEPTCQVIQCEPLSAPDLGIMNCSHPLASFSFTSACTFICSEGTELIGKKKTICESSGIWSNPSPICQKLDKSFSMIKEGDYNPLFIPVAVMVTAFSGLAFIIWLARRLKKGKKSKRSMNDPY
Assay: competitive SPR binding assay

In the case of `CC1(C)O[C@H](COS(=O)(=O)O)[C@H](NC(=O)c2ccc(-c3cc(-c4ccc(C(=O)N[C@@H]5[C@@H](OS(=O)(=O)O)[C@H](COS(=O)(=O)O)C(C)(C)O[C@@H]5COS(=O)(=O)O)cc4)cc(-c4ccc(C(=O)N[C@@H]5[C@@H](OS(=O)(=O)O)[C@H](COS(=O)(=O)O)C(C)(C)O[C@@H]5COS(=O)(=O)O)cc4)c3)cc2)[C@@H](OS(=O)(=O)O)[C@@H]1COS(=O)(=O)O` [compound 34, O-sulfated trivalent amide 34], the IC50 is reported as 2000 nM.
In the case of `O=C(NC(COS(=O)(=O)O)COS(=O)(=O)O)c1ccc(C(=O)NC(COS(=O)(=O)O)COS(=O)(=O)O)cc1` [compound 32, O-sulfated divalent amide 32], the IC50 is reported as 1000 nM.
